Literature values, collected in patent publication US20070066602A1, “Process for Making Olanzapine Form I” (priority 2005, published 2007).

What was measured:
[1] = at pH 6.8; free base, crystalline solid

| Compound | solubility in water (qualitative) | solubility [1] |
| --- | --- | --- |
| Cc1cc2c(s1)Nc1ccccc1N=C2N1CCN(C)CC1.O=C(O)c1ccccc1 [Olanzapine benzoate] | sparingly soluble in water |  |
| Cc1cc2c(s1)Nc1ccccc1N=C2N1CCN(C)CC1 [olanzapine, Olanzapine] | insoluble in water | about 0.02 mg/ml |
